Assay [1] relates to prostate tumor cells (PC-3). The experiment in a line: cells. Conditions: Homo sapiens, 24 h, read-out: IC50 (concentration listed as 100 % IC50), PC-3.
The test system of assay [2] is prostate tumor cells (PC-3).
Where [3] appears, read: concurrent 24 h exposure, % IC50 0/100: roscovitine 0, mitox. 12.50 ng/ml.
[4] abbreviates: mitoxantrone 24 h then roscovitine 24 h, % IC50 0/100: roscovitine 0, mitox. 15.00 ng/ml.
The mark [5] stands for this setting: roscovitine 24 h then mitoxantrone 24 h, % IC50 0/100: roscovitine 0, mitox. 10.00 ng/ml.
[6] abbreviates: mitoxantrone 24 h then roscovitine 24 h, % IC50 100/0: roscovitine 30.00 ug/ml, mitox. 0.

Converted amounts (≈) assume the structure as drawn. “And” between values parts separate entries of the source, which are not always exact repeats. Identical values can stand only once. Like-named read-outs stand apart in the source and are kept apart here.

As to `O=C1c2c(O)ccc(O)c2C(=O)c2c(NCCNCCO)ccc(NCCNCCO)c21` [Mitoxantrone, 1,4-dihydroxy-5,8-bis[{2-[(2-hydroxyethyl)amino]ethyl}amino]-9,10-anthracendione], the IC50 is 0.01 µg/mL (≈ 0.0225 µM) in assay [1] (Table 3, roscovitine 24 h then mitoxantrone 24 h); 0.015 µg/mL (≈ 0.0337 µM) in assay [1] (Table 5, mitoxantrone 24 h then roscovitine 24 h); 0.0125 µg/mL (≈ 0.0281 µM) in assay [1] (Table 7, concurrent 24 h exposure). Moreover, the “% Abs” value was 51.8% and 54.7% in assay [2] (setting [3]); 47.0% in assay [2] (setting [4]); 62.7% in assay [2] (setting [5]). Moreover, the figures for the “% Response” value in assay [2] (setting [3]), in assay [2] (setting [4]) and in assay [2] (setting [5]) were 45.3%, 53.0% and 37.3%, respectively. Further, the “Mean (absorbance)” value worked out at 0.418 in assay [2] (setting [3]), 0.367 in assay [2] (setting [4]) and 0.501 in assay [2] (setting [5]). Besides, the “Well 1-3 (absorbance)” value in assay [2] (setting [3]) was 0.415 and 0.424 and 0.414; in assay [2] (setting [4]), 0.373 and 0.371 and 0.358; in assay [2] (setting [5]), 0.532 and 0.487 and 0.483.
For `CC[C@H](CO)Nc1nc(NCc2ccccc2)c2ncn(C(C)C)c2n1` [Roscovitine, 6-benzylamino-2-[(R)-1-ethyl-2-hydroxyethylamino]-9-isopropylpurine], in assay [2] (setting [6]), the “% Abs” value was 21.9%; the “% Response” value is 78.1%; the “Mean (absorbance)” value was found to be 0.171; the “Well 1-3 (absorbance)” value is 0.165 and 0.162 and 0.186.
